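Grown in 96-well plates, cells were treated for 48 hours with each compound at five concentrations. Insufficient inhibition: endpoint recorded as highest concentration tested. TGI marks complete inhibition of growth.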
How the values were obtained:
Experiment in all cases: DTP human tumour cell line panel, 48 h
786-0 renal = test system: 786-0 renal
A498 renal = test system: A498 renal
A549 NSCLC = test system: A549 NSCLC
ACHN renal = test system: ACHN renal
BT-549 breast = test system: BT-549 breast
CAKI-1 renal = test system: CAKI-1 renal
CCRF-CEM leukemia = test system: CCRF-CEM leukemia
COLO 205 colon = test system: COLO 205 colon
DU-145 prostate = test system: DU-145 prostate
EKVX NSCLC = test system: EKVX NSCLC
HCC-2998 colon = test system: HCC-2998 colon
HCT-116 colon = test system: HCT-116 colon
HCT-15 colon = test system: HCT-15 colon
HOP-62 NSCLC = test system: HOP-62 NSCLC
HOP-92 NSCLC = test system: HOP-92 NSCLC
HS 578T breast = test system: HS 578T breast
HT29 colon = test system: HT29 colon
IGROV1 ovarian = test system: IGROV1 ovarian
K-562 leukemia = test system: K-562 leukemia
KM12 colon = test system: KM12 colon
LOX IMVI melanoma = test system: LOX IMVI melanoma
M14 melanoma = test system: M14 melanoma
MALME-3M melanoma = test system: MALME-3M melanoma
MCF7 breast = test system: MCF7 breast
MDA-MB-231 breast = test system: MDA-MB-231 breast
MDA-MB-435 = test system: MDA-MB-435
MDA-N = test system: MDA-N
MOLT-4 leukemia = test system: MOLT-4 leukemia
NCI-H226 lung = test system: NCI-H226 lung
NCI-H23 lung = test system: NCI-H23 lung
NCI-H460 lung = test system: NCI-H460 lung
NCI-H522 lung = test system: NCI-H522 lung
NCI/ADR-RES ovarian = test system: NCI/ADR-RES ovarian
OVCAR-3 ovarian = test system: OVCAR-3 ovarian
OVCAR-5 ovarian = test system: OVCAR-5 ovarian
OVCAR-8 ovarian = test system: OVCAR-8 ovarian
PC-3 prostate = test system: PC-3 prostate
RPMI-8226 leukemia = test system: RPMI-8226 leukemia
SF-268 CNS = test system: SF-268 CNS
SF-295 CNS = test system: SF-295 CNS
SF-539 CNS = test system: SF-539 CNS
SK-MEL-2 melanoma = test system: SK-MEL-2 melanoma
SK-MEL-28 melanoma = test system: SK-MEL-28 melanoma
SK-MEL-5 melanoma = test system: SK-MEL-5 melanoma
SK-OV-3 ovarian = test system: SK-OV-3 ovarian
SN12C renal = test system: SN12C renal
SNB-19 CNS = test system: SNB-19 CNS
SNB-75 CNS = test system: SNB-75 CNS
SR leukemia = test system: SR leukemia
SW-620 colon = test system: SW-620 colon
T-47D breast = test system: T-47D breast
U251 CNS = test system: U251 CNS
UACC-257 melanoma = test system: UACC-257 melanoma
UACC-62 melanoma = test system: UACC-62 melanoma
UO-31 renal = test system: UO-31 renal

Measured: TGI

CCCCCCCC(CC(=O)O)OC(=O)CC(CCCCCCC)OC1OC(C)C(O)C(O)C1OC1OC(C)C(O)C(O)C1O (stereo not given)
> 100 µM: 786-0 renal | A498 renal | A549 NSCLC | ACHN renal | BT-549 breast | CAKI-1 renal | CCRF-CEM leukemia | COLO 205 colon | DU-145 prostate | EKVX NSCLC | HCC-2998 colon | HCT-116 colon | HCT-15 colon | HOP-62 NSCLC | HOP-92 NSCLC | HS 578T breast | HT29 colon | IGROV1 ovarian | K-562 leukemia | KM12 colon | LOX IMVI melanoma | M14 melanoma | MALME-3M melanoma | MCF7 breast | MDA-MB-231 breast | MDA-MB-435 | MDA-N | MOLT-4 leukemia | NCI-H226 lung | NCI-H23 lung | NCI-H460 lung | NCI-H522 lung | NCI/ADR-RES ovarian | OVCAR-3 ovarian | OVCAR-5 ovarian | OVCAR-8 ovarian | PC-3 prostate | RPMI-8226 leukemia | SF-268 CNS | SF-295 CNS | SF-539 CNS | SK-MEL-2 melanoma | SK-MEL-28 melanoma | SK-MEL-5 melanoma | SK-OV-3 ovarian | SN12C renal | SNB-19 CNS | SNB-75 CNS | SR leukemia | SW-620 colon | T-47D breast | U251 CNS | UACC-257 melanoma | UACC-62 melanoma | UO-31 renal

Source: PubChem BioAssay (NCI)
